Test results taken from PMC11904948, “Peptide‐Drug Conjugate for Therapeutic Reprogramming of Tumor‐Associated Macrophages in Breast Cancer” (Advanced Science, 2025).

System: Balb/c BMDM
Test: Flow cytometry of marker expression on Balb/c BMDM
Assay type: cell-based, mouse
Conditions: 10 µM 4 h, 48 h after treatment, n = 4
Method: Figure 6 MACTIDE‐V promotes a YAP‐ mediated anti‐ tumoral switch in bone marrow‐derived macrophages. Day 5 BMDM were incubated for 4 h with 10 µM conjugates, washed, and followed‐up in media. A) YAP Immunofluorescence (shown in red) was analyzed 3 h after treatment and B) phagocytosis of fluorescent E. coli particles at 48 h follow‐up. C) Flow cytometry on BMDM 48 h after treatment. Left panel, GeoMean of MHC II, CD206, CD80, and PD‐L1 in Balb/c BMDM. Median ± interquartile range. Repeated measures one‐way ANOVA with multiple comparisons, for n = 4 independent experiments. ^* p ≤ 0.05, ^** p ≤ 0.01. D) Heatmap of the mRNA expression of genes involved in the functional activation of BMDM, YAP signaling, and adhesion, measured by real‐time PCR 48 h after treatment in BALB/c BMDM. n = 3 independent experiments. […]
At the mRNA level, MACTIDE‐V induced a clear increase in Il‐12, Chil3 and Nos2 genes, (Figure 6D, left panel). […] To further investigate whether the effect of MACTIDE‐V was mediated by YAP targeting, we analyzed a set of 7 YAP‐regulated genes (Figure 6D, right panel). […]

## Vert‐Ahx‐G(CTKSIPPIC)SPGAK‐OH (disulfide) [MACTIDE‐V]
  expression of CD80 (GeoMean): no significant changes
  expression of CD206 (GeoMean): no significant changes
Versus CtrlPep‐V and untreated
  expression of MHC II (GeoMean): upregulated
  expression of PD‐L1 (GeoMean): upregulated
